Source: ChEMBL document CHEMBL1201862, “PubChem BioAssay data set” (2004)
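Interpolation was linear, between the two tested concentrations surrounding the appropriate level; five concentrations were tested over 48 hours in 96-well plates. At the GI50, growth is halved.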 Calls of active or inactive are those of the source. No stated cut-off is given here; in the data, active = GI50 up to about 1.1 µM and inactive = higher.

What was measured:
Test in all cases: inhibition of tumour cell growth, NCI panel, 48 h
IGROV-1 = test system: IGROV-1
HOP-62 = test system: HOP-62
HL-60 = test system: HL-60
RPMI-8226 = test system: RPMI-8226
NCI-H522 = test system: NCI-H522
COLO 205 = test system: COLO 205
SR = test system: SR
SF-295 = test system: SF-295
786-0 = test system: 786-0
U-251 = test system: U-251
SK-MEL-28 = test system: SK-MEL-28
TK-10 = test system: TK-10
UO-31 = test system: UO-31
Malme-3M = test system: Malme-3M
HOP-92 = test system: HOP-92
OVCAR-4 = test system: OVCAR-4
RXF 393 = test system: RXF 393

SMILES | GI50 (IGROV-1) | GI50 (HOP-62) | GI50 (HL-60) | GI50 (RPMI-8226) | GI50 (NCI-H522) | GI50 (COLO 205) | GI50 (SR) | GI50 (SF-295) | GI50 (786-0) | GI50 (U-251) | GI50 (SK-MEL-28) | GI50 (TK-10) | GI50 (UO-31) | GI50 (Malme-3M) | GI50 (HOP-92) | GI50 (OVCAR-4) | GI50 (RXF 393)
CN(C)CCNC(=O)c1ccc(Cl)c2c(Nc3ccc(S(N)(=O)=O)cc3)c3ccccc3nc12 | 2.72 µM (inactive) | 8.45 µM (inactive) | 0.553 µM (active) | 4.5 µM (inactive) | 0.462 µM (active) | 0.61 µM (active) | 0.151 µM (active) | 3.41 µM (inactive) | 1.55 µM (inactive) | 2.16 µM (inactive) | 2.67 µM (inactive) | 2.95 µM (inactive) | 2.38 µM (inactive) | 3.46 µM (inactive) | 1.43 µM (inactive) | 1.93 µM (inactive) | –
Nn1c(S)nnc1N/N=C1/C(=O)Nc2ccccc21 | 59.2 µM (inactive) | 64.9 µM (inactive) | 94.4 µM (inactive) | 63.2 µM (inactive) | 44.9 µM (inactive) | > 100 µM (inactive) | 39.6 µM (inactive) | 82.8 µM (inactive) | > 100 µM (inactive) | 58.3 µM (inactive) | 33.7 µM (inactive) | > 100 µM (inactive) | 47 µM (inactive) | > 100 µM (inactive) | 56.1 µM (inactive) | 42.1 µM (inactive) | 27.7 µM (inactive)
CCOC(=O)/C(=C/c1cccc(C#N)c1)N(CC)CC | > 100 µM (inactive) | > 100 µM (inactive) | > 100 µM (inactive) | > 100 µM (inactive) | > 100 µM (inactive) | > 100 µM (inactive) | > 100 µM (inactive) | > 100 µM (inactive) | > 100 µM (inactive) | > 100 µM (inactive) | > 100 µM (inactive) | > 100 µM (inactive) | > 100 µM (inactive) | > 100 µM (inactive) | > 100 µM (inactive) | > 100 µM (inactive) | –
N=C1NC2(O)C(=O)c3ccccc3C2(O)N1 (stereo not given) | > 100 µM (inactive) | > 100 µM (inactive) | > 100 µM (inactive) | > 100 µM (inactive) | > 100 µM (inactive) | > 100 µM (inactive) | > 100 µM (inactive) | > 100 µM (inactive) | > 100 µM (inactive) | > 100 µM (inactive) | > 100 µM (inactive) | > 100 µM (inactive) | – | > 100 µM (inactive) | > 100 µM (inactive) | > 100 µM (inactive) | > 100 µM (inactive)
O=C(c1ccc(Cl)cc1)N(C(=S)N1CCN(c2ccccn2)CC1)c1ccccc1 | > 100 µM (inactive) | > 100 µM (inactive) | 32.7 µM (inactive) | 82.4 µM (inactive) | > 100 µM (inactive) | > 100 µM (inactive) | 39.3 µM (inactive) | 99.3 µM (inactive) | > 100 µM (inactive) | > 100 µM (inactive) | > 100 µM (inactive) | > 100 µM (inactive) | 68.9 µM (inactive) | > 100 µM (inactive) | > 100 µM (inactive) | > 100 µM (inactive) | 15.6 µM (inactive)
COc1cc(C(=O)C/C(CCC(=O)Nc2ccc(Cl)cc2Cl)=N/Nc2nnc(C)n2N)ccc1O | > 100 µM (inactive) | > 100 µM (inactive) | > 100 µM (inactive) | > 100 µM (inactive) | > 100 µM (inactive) | > 100 µM (inactive) | > 100 µM (inactive) | > 100 µM (inactive) | > 100 µM (inactive) | > 100 µM (inactive) | > 100 µM (inactive) | > 100 µM (inactive) | > 100 µM (inactive) | > 100 µM (inactive) | > 100 µM (inactive) | – | > 100 µM (inactive)
COc1cc2c([C@@H](OC(=O)c3ccccc3)c3ccc4c(c3)OCO4)nccc2c(OC)c1OC | > 100 µM (inactive) | > 100 µM (inactive) | 16.4 µM (inactive) | 9.71 µM (inactive) | 19.4 µM (inactive) | 78.7 µM (inactive) | 17.8 µM (inactive) | 44.3 µM (inactive) | > 100 µM (inactive) | 61.7 µM (inactive) | – | 75.9 µM (inactive) | 2.7 µM (inactive) | 64.6 µM (inactive) | 65.5 µM (inactive) | 18.7 µM (inactive) | 20.2 µM (inactive)
CCOc1ccc(/C=C2/C(=O)N=C(N)N=C2N)cc1OCC | > 100 µM (inactive) | – | > 100 µM (inactive) | > 100 µM (inactive) | > 100 µM (inactive) | > 100 µM (inactive) | > 100 µM (inactive) | > 100 µM (inactive) | > 100 µM (inactive) | > 100 µM (inactive) | > 100 µM (inactive) | > 100 µM (inactive) | > 100 µM (inactive) | > 100 µM (inactive) | > 100 µM (inactive) | > 100 µM (inactive) | > 100 µM (inactive)
CC12CCC([C@H](N3CCOCC3)/C1=N\OCCN1CCCC1)C2(C)C (stereo not given in full) | > 100 µM (inactive) | > 100 µM (inactive) | > 100 µM (inactive) | > 100 µM (inactive) | > 100 µM (inactive) | > 100 µM (inactive) | > 100 µM (inactive) | > 100 µM (inactive) | > 100 µM (inactive) | > 100 µM (inactive) | > 100 µM (inactive) | > 100 µM (inactive) | > 100 µM (inactive) | > 100 µM (inactive) | > 100 µM (inactive) | > 100 µM (inactive) | > 100 µM (inactive)
CN(C)P(=O)(/C(N)=N/Nc1ccc([N+](=O)[O-])cc1)N(C)C | – | > 100 µM (inactive) | > 100 µM (inactive) | > 100 µM (inactive) | 48 µM (inactive) | > 100 µM (inactive) | > 100 µM (inactive) | – | > 100 µM (inactive) | > 100 µM (inactive) | > 100 µM (inactive) | > 100 µM (inactive) | > 100 µM (inactive) | > 100 µM (inactive) | 41.4 µM (inactive) | 85.1 µM (inactive) | –
CNC(SC)=C1C(=O)OC(C)(C)OC1=O | > 100 µM (inactive) | > 100 µM (inactive) | > 100 µM (inactive) | > 100 µM (inactive) | > 100 µM (inactive) | 45.8 µM (inactive) | > 100 µM (inactive) | > 100 µM (inactive) | > 100 µM (inactive) | 18.1 µM (inactive) | > 100 µM (inactive) | > 100 µM (inactive) | > 100 µM (inactive) | > 100 µM (inactive) | > 100 µM (inactive) | – | 68.9 µM (inactive)
c1cncc(C2c3[nH]c4ccccc4c3CCN2CCN2CCCCC2)c1 (stereo not given) | > 100 µM (inactive) | > 100 µM (inactive) | 41.5 µM (inactive) | 62.8 µM (inactive) | > 100 µM (inactive) | – | > 100 µM (inactive) | > 100 µM (inactive) | > 100 µM (inactive) | > 100 µM (inactive) | 46.7 µM (inactive) | > 100 µM (inactive) | 38.3 µM (inactive) | – | 30 µM (inactive) | > 100 µM (inactive) | –
NC(=O)N/N=C(/c1nc2ccc([N+](=O)[O-])cc2nc1O)C(O)c1ccco1 (stereo not given) | 73.3 µM (inactive) | 35.3 µM (inactive) | 13.1 µM (inactive) | 43 µM (inactive) | 14.7 µM (inactive) | 40 µM (inactive) | 57.1 µM (inactive) | 80.7 µM (inactive) | 97.5 µM (inactive) | 54.2 µM (inactive) | 96.6 µM (inactive) | > 100 µM (inactive) | 53.6 µM (inactive) | > 100 µM (inactive) | > 100 µM (inactive) | > 100 µM (inactive) | > 100 µM (inactive)
CC1=Nc2ccccc2S(=O)(=O)N1 | > 100 µM (inactive) | > 100 µM (inactive) | > 100 µM (inactive) | – | > 100 µM (inactive) | > 100 µM (inactive) | > 100 µM (inactive) | > 100 µM (inactive) | > 100 µM (inactive) | > 100 µM (inactive) | > 100 µM (inactive) | > 100 µM (inactive) | > 100 µM (inactive) | > 100 µM (inactive) | > 100 µM (inactive) | > 100 µM (inactive) | > 100 µM (inactive)
O=C(CCN1CCN(c2ccccc2)CC1)N1CCc2c([nH]c3ccccc23)C1c1cccnc1 (stereo not given) | 39.7 µM (inactive) | 20.8 µM (inactive) | 14.3 µM (inactive) | > 10 µM (inactive) | 15.4 µM (inactive) | 13.5 µM (inactive) | 24.7 µM (inactive) | > 10 µM (inactive) | 15.4 µM (inactive) | 16.4 µM (inactive) | 15.7 µM (inactive) | 5.81 µM (inactive) | 11.5 µM (inactive) | 19.1 µM (inactive) | 18.5 µM (inactive) | 13.6 µM (inactive) | 24.6 µM (inactive)
CCOC(=O)C(C(=O)OCC)S(C)(=O)=O | > 100 µM (inactive) | > 100 µM (inactive) | > 100 µM (inactive) | > 100 µM (inactive) | > 100 µM (inactive) | > 100 µM (inactive) | > 100 µM (inactive) | > 100 µM (inactive) | > 100 µM (inactive) | > 100 µM (inactive) | > 100 µM (inactive) | > 100 µM (inactive) | > 100 µM (inactive) | > 100 µM (inactive) | > 100 µM (inactive) | > 100 µM (inactive) | > 100 µM (inactive)
O=c1[nH][nH]c(=O)[nH]1 | > 100 µM (inactive) | > 100 µM (inactive) | > 100 µM (inactive) | > 100 µM (inactive) | > 100 µM (inactive) | > 100 µM (inactive) | > 100 µM (inactive) | > 100 µM (inactive) | > 100 µM (inactive) | > 100 µM (inactive) | > 100 µM (inactive) | > 100 µM (inactive) | > 100 µM (inactive) | > 100 µM (inactive) | > 100 µM (inactive) | > 100 µM (inactive) | > 100 µM (inactive)
